Measured values reported in the NIST ThermoML archive (doi:10.1016/j.jct.2015.08.028).
Numbers after ± are expanded uncertainties.

Assays:
[1] = Molar enthalpy of transition or fusion; details: Crystal; DSC
[2] = Crystal; DTA

- Molar enthalpy of transition or fusion [1]: 4.61 ± 0.12 kcal/mol
- Normal melting temperature [2]: 80.8 ± 1.6 °C
Compound: CC1=C(O)C(=O)C(C)O1 (configuration not stated) [4-hydroxy-2,5-dimethyl-3(2H)-furanone]
